Patent publication EP4410284A1, “COMPOUND AND METHOD FOR THE TREATMENT OF ZELLWEGER SPECTRUM DISORDER” (Apteeus, priority 2023, dated 2024)
Structures can show the parent of a compound that is named as a salt. Where two headings read alike, the source gives them in different places.

Legend:
[1] = tested on: PEX405 cells; format: cell-based; conditions: 3 days, PI positive cells (dead cells)
[2] = tested on: GM16513 cells; format: cell-based; conditions: 3 days, PI positive cells (dead cells)
[3] = tested on: PEX405 cells; assay: Catalase import immunofluorescence, high-content screening (% importing cells); format: cell-based, human; conditions: PEX405 cells, 3 days
[4] = tested on: GM16513 cells; assay: as above; format: cell-based, human; conditions: GM16513 cells, 3 days; for EC50: read-out: EC50; for Emax: read-out: Max Efficacy (% Importing cells)
[5] = Homo sapiens, 72 h, dose response with 6 concentrations
[6] = dose response with 6 concentrations

Row | Compound | % PI+ cells ([1]; 1.3 µM) [%] | % PI+ cells ([1]; 10 µM) [%] | % PI+ cells ([2]; 1.3 µM) [%] | % PI+ cells ([2]; 10 µM) [%] | EC50 [4, 5] [nM] | EC50 [4, 6] [nM] | % Importing cells ([3]; 1.3 µM) [%] | % Importing cells ([3]; 10 µM) [%] | % Importing cells ([4]; 1.3 µM) [%] | % Importing cells ([4]; 10 µM) [%] | Emax [4, 5] [%] | Max Efficacy (% Importing cells) [4, 6] [%]
1 | O=C(NO)c1cnc(N2C[C@@H]3[C@H](C2)[C@H]3NCc2ccc3cc(F)ccc3n2)nc1 [Nanatinostat] | 15 | 54 | 12 | 37 | 50 |  | 14 | 0 | 88 | 78 | 93 | 
2 | COc1ccc(Cn2ccc3ccc(C(=O)NO)cc32)cc1 [PCI-34051] | 1 | 1 | 1 | 2 |  |  | 2 | 1 | 16 | 7 |  | 
3 | CCCCc1nc2cc(/C=C/C(=O)NO)ccc2n1CCN(CC)CC [Pracinostat] | 2 | 41 | 4 | 31 | 170 |  | 52 | 25 | 92 | 86 | 93 | 
4 | O=C(CCCCCCC(=O)Nc1cccnc1)NO [Pyroxamide] | 1 | 1 | 1 | 4 |  |  | 5 | 3 | 25 | 11 |  | 
5 | Cn1cc(CNCC2CCN(c3ncc(C(=O)NO)cn3)CC2)c2ccccc21 [Quisinostat] | 24 | 53 | 17 | 38 | 30 |  | 40 | 26 | 98 | 86 | 95 | 
6 | COC(=O)c1ccc(OC(=O)CCCCCCC(=O)NO)cc1 [Remetinostat] | 0 | 1 | 1 | 1 |  |  | 3 | 2 | 12 | 14 |  | 
7 | CN(C)Cc1ccc(S(=O)(=O)n2ccc(/C=C/C(=O)NO)c2)cc1 [Resminostat (hydrochloride), Resminostat] | 1 | 4 | 2 | 8 | 1400 |  | 13 | 19 | 60 | 83 | 86 | 
8 | CCOC(=O)NCCCC(=O)NCCc1ccccc1 [Santacruzamate A] | 2 | 1 | 1 | 1 |  |  | 3 | 3 | 24 | 25 |  | 
9 | O=C(CCCCCN1C(=O)c2cccc3cccc(c23)C1=O)NO [Scriptaid] | 1 | 6 | 2 | 8 |  |  | 15 | 16 | 57 | 92 |  | 
10 | O=C1CCc2c(ccc3ccccc23)O1 [Splitomicin] | 0 | 1 | 1 | 1 |  |  | 5 | 5 | 33 | 25 |  | 
11 | O=C(CCCCCCC(=O)NO)NO [Suberoyl bis-hydroxamic acid] | 1 | 1 | 1 | 2 |  |  | 4 | 10 | 13 | 57 |  | 
12 | CC(C)(CNC(=O)c1cccc(-c2noc(C(F)(F)F)n2)c1)c1coc(-c2ccccc2)n1 [TMP195] | 1 | 1 | 1 | 1 |  |  | 2 | 1 | 13 | 8 |  | 
13 | O=C(NCC1(c2nc(-c3ccccc3)cs2)CCOCC1)c1cccc(-c2noc(C(F)(F)F)n2)c1 [TMP269] | 0 | 1 | 1 | 1 |  |  | 3 | 3 | 11 | 7 |  | 
14 | COc1cccc2c1c(O)c(C(=O)N(C)c1ccc(C(F)(F)F)cc1)c(=O)n2C [Tasquinimod] | 0 | 0 | 1 | 1 |  |  | 7 | 4 | 23 | 22 |  | 
15 | CC(/C=C/C(=O)NO)=C\[C@@H](C)C(=O)c1ccc(N(C)C)cc1 [Trichostatin A] | 24 | 49 | 18 | 30 |  |  | 28 | 0 | 90 | 76 |  | 
16 | O=C(CCCCCCC(=O)Nc1ccc([C@H]2O[C@@H](CSc3nc(-c4ccccc4)c(-c4ccccc4)o3)C[C@@H](c3ccc(CO)cc3)O2)cc1)NO [Tubacin] |  | 4 |  | 4 |  |  |  | 5 |  | 39 |  | 

More lines, main results first:

Row | % PI+ cells ([1]; 1.3 µM) [%] | % PI+ cells ([1]; 10 µM) [%] | % PI+ cells ([2]; 1.3 µM) [%] | % PI+ cells ([2]; 10 µM) [%] | EC50 [4, 5] [nM] | EC50 [4, 6] [nM] | Compound | % Importing cells ([3]; 1.3 µM) [%] | % Importing cells ([3]; 10 µM) [%] | % Importing cells ([4]; 1.3 µM) [%] | % Importing cells ([4]; 10 µM) [%] | Emax [4, 5] [%] | Max Efficacy (% Importing cells) [4, 6] [%]
17 | 1 | 4 | 3 | 3 |  |  | Nc1ccccc1NC(=O)c1ccc(Cn2cc(-c3ccc(C(=O)NCc4cccnc4)cc3)nn2)cc1 [Nampt-IN-3] | 33 | 31 | 80 | 74 |  | 
18 | 1 | 3 | 2 | 4 |  |  | CCCCN(Cc1ccc(C(=O)NO)cc1)C(=O)Nc1ccccc1 [Nexturastat A] | 8 | 27 | 35 | 83 |  | 
19 | 48 | 49 | 30 | 32 | 3.14 |  | Cc1[nH]c2ccccc2c1CCNCc1ccc(/C=C/C(=O)NO)cc1 [Panobinostat] | 6 | 18 | 86 | 44 | 93 | 
20 | 1 | 2 | 1 | 3 |  |  | Cc1ccc(NC(=O)CCCCCC(=O)Nc2ccccc2N)cc1 [Pimelic Diphenylamide 106] | 4 | 17 | 22 | 52 |  | 
21 | 13 | 48 | 11 | 30 |  |  | O=C(NO)c1ccc(CNC(=O)c2[nH]c(-c3ccc(O)cc3)cc2-c2ccoc2)cc1.O=C(O)C(F)(F)F [QTX125 (TFA)] | 23 | 0 | 83 | 61 |  | 
22 | 1 | 1 | 1 | 3 |  |  | Nc1cc(F)ccc1NC(=O)/C=C/c1cnn(C/C=C/c2ccccc2)c1 [RGFP966] | 1 | 2 | 11 | 12 |  | 
23 | 0 | 1 | 1 | 2 |  |  | CCCCNNC(=O)c1ccc(-c2cccc(F)c2F)cc1 [SR-4370] | 5 | 7 | 26 | 30 |  | 
24 | 0 | 2 | 1 | 5 |  |  | O=C(NO)c1ccc(CN2CCCc3cc(Cl)ccc32)cc1 [SW-100] | 4 | 0 | 21 | 6 |  | 
25 | 1 | 1 | 1 | 2 |  |  | CC(=O)Nc1ccc(C(=O)Nc2ccccc2N)cc1 [Tacedinaline] | 2 | 4 | 15 | 18 |  | 
26 | 1 | 23 | 2 | 2 |  | 4000 | O=C(CCCCCCC(=O)Nc1ccc(CN[C@H](C(=O)OC2CCCC2)c2ccccc2)cc1)NO [Tefinostat] | 24 | 24 | 33 | 91 |  | 97
27 | 1 | 1 | 2 | 1 |  |  | CN1CCc2c(c3ccccc3n2Cc2ccc(C(=O)NO)cc2)C1.Cl [Tubastatin A (Hydrochloride), Tubastatin A] | 3 | 6 | 12 | 37 |  | 
